Laboratory results as given in PMC8705986, “A Novel Angiotensin-I-Converting Enzyme (ACE) Inhibitory Peptide from Takifugu flavidus” (Marine Drugs, 2021).
Like-named read-outs stand apart in the source and are kept apart here.

What was measured:
[1] = system: spontaneously hypertensive rats (SHRs); test: Antihypertensive effect in SHRs, intravenous, tail-cuff SBP/DBP; type: in vivo; settings: 5 mg/kg intravenous single dose
Method: Animals were obtained from Vital River Laboratory Animal Technology (Beijing, China), who also performed the blood pressure measurements in spontaneously hypertensive rats (SHRs) with a tail systolic blood pressure (SBP) of over 180 mmHg. Animals were fed a normal diet, and tap water was freely available. SHRs (11 weeks, 240 ± 20 g body weight) were raised at room temperature (25 °C) under a 12 h light/dark cycle. […] Captopril (5 mg/kg) was used as a positive control, and the negative control group was injected with an equal volume of saline. The SBP and DBP of the rats were measured using the tail-cuff method before administration and at 2, 4, 6, 12, and 24 h post-administration, using a BP-98A blood pressure monitor (Softron Biotechnology, Beijing, China) after heating the SHRs at 37 °C for 30 min in a warming chamber. All the rats received humane care conforming to the National Institutes of Health Guide for Care and Use of Laboratory Animals. This study was approved by the Ethics Committee of Guangdong medical laboratory animal center (No. 20211001).
Statistical analysis was performed using SPSS 19.0 software ([…]). Experimental data are presented as means ± standard deviations (SD) and were statistically evaluated using one-way analysis of variance (ANOVA) with Duncan’s test. Origin 9.0 (OriginLab, Northampton, MA, USA) software was used to process the data.

ACE = settings: cited from earlier work; for ACE-inhibitory activity, in words: shark meat hydrolysates, ref [16] Hao Wu et al.
From the text: (§1) Marine organisms, which are rich in unique bioactive proteins, have been widely used in the search for ACE-inhibitory peptides. According to previous studies, many novel ACE-inhibitory peptides with efficient antihypertensive effects were obtained from marine organisms. […] Liu et al. investigated the antihypertensive activity of a protein hydrolysate that was made from Rhopilema esc ...

SHRs = settings: oral administration in SHRs; ref [17] Lee et al.; cited from earlier work
From the text: as §1

[2] = target: T1, angiotensin-I-converting enzyme (ACE, EC 3.4.15.1, from rabbit lung) (rabbit) (UniProt P12822)
T1 sequence: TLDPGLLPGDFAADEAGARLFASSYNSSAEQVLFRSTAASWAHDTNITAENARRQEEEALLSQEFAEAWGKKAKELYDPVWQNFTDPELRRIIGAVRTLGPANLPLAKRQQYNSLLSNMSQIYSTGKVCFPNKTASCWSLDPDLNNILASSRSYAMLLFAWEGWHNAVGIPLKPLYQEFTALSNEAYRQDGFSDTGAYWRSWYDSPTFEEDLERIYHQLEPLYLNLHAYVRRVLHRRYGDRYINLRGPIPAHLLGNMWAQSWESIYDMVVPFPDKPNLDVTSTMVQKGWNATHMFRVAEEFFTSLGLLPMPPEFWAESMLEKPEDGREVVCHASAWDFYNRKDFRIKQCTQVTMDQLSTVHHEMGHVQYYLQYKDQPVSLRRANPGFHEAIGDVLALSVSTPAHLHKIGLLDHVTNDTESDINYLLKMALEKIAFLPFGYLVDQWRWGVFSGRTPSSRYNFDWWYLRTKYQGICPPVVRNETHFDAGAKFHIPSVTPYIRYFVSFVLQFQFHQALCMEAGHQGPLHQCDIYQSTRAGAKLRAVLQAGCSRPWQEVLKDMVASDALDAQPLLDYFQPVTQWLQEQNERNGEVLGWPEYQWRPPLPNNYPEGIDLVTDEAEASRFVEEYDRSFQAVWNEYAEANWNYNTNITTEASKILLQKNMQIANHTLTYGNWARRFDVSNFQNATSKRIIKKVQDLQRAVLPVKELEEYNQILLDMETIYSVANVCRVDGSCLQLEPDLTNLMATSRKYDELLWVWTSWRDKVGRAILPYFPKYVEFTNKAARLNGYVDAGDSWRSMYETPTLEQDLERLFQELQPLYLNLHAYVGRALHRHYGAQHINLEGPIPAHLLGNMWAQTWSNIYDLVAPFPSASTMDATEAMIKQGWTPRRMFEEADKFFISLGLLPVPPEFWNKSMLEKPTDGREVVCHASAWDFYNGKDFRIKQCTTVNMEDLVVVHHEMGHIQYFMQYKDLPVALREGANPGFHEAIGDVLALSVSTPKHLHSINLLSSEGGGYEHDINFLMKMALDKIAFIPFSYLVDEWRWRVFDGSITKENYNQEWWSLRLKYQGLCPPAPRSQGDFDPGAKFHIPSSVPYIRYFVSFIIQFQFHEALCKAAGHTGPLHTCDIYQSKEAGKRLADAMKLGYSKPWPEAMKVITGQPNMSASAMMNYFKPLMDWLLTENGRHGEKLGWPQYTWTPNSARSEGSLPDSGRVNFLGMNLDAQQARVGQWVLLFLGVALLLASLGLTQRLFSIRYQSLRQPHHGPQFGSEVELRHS

[3] = ref [14] Ghassem et al., read-out: IC50, ACE-inhibitory peptides from snakehead fish

## C[C@H](CS)C(=O)N1CCC[C@H]1C(=O)O [Captopril, captopril]
[1]; 4 h, p < 0.05
  systolic blood pressure (SBP) at 4 h: 151 mmHg
[1]; 24 h
  systolic blood pressure (SBP) at 24 h: 161 mmHg
[1]; value from which SBP fell
  systolic blood pressure (SBP), starting value: 190 mmHg

## Cys-Phe
ACE
  ACE-inhibitory activity, in words: high ACE-inhibitory activity

## Glu-Tyr
ACE
  ACE-inhibitory activity, in words: high ACE-inhibitory activity

## Gly-Asp-Leu-Gly-Lys-Thr-Thr-Thr-Val-Ser-Asn-Trp-Ser-Pro-Pro-Lys-Try-Lys-Asp-Thr-Pro [PTFP]
SHRs
  antihypertensive effect, in words: has an antihypertensive effect after oral administration in SHRs
ACE; ref [17] Lee et al.
  ACE inhibition mode, tuna frame peptide: non-competitive inhibitor
ACE; ref [17] Lee et al., read-out: IC50, ACE-inhibitory peptide from tuna frame protein
  IC50: 11300 nM

## LYPPP
ACE; [3]
  IC50: 1300 nM

## Met-Phe
ACE
  ACE-inhibitory activity, in words: high ACE-inhibitory activity

## Phe-Glu
ACE
  ACE-inhibitory activity, in words: high ACE-inhibitory activity

## YSMYPP
ACE; [3]
  IC50: 2800 nM

## PPLLFAAL [PPLLFAAL (Pro-Pro-Leu-Leu-Phe-Ala-Ala-Leu)]
[2]
  ACE-inhibitory activity (hydrolysis of hippuryl-L-histidyl-L-leucine to hippuric acid, RP-HPLC at 220 nm, 37 °C, pH 8.3, 0.3 M NaCl), IC50 of the synthetic peptide: 28 μmol·L^−1
